In US20100099642A1, “TGF-BETA STIMULANT AND FURTHER AGENT TO REDUCE SIDE EFFECTS” (TCP Innovations Limited, priority 2007, published 2010):

Experiments:
TGF-beta activity = TGF-beta activity estimated by smooth muscle cell proliferation (CPD with/without neutralising anti-TGF-beta antibody); assay type: cell-based, human; conditions: for TGF-beta activity: ratio of CPD in the absence vs presence of neutralising anti-TGF-beta antibody: 0 μM T, 72 hrs; for effect of lower doses on CPD and hence TGF-beta activity: doses below 10 μM Tamoxifen / below 100 μM aspirin
Experimental: The cells were cultured (37° C.; 5% CO2) in DMEM+20% foetal calf serum (FCS), and subcultured every 5 days at 1:2 dilution, using 0.02% trypsin/EDTA (Gibco).
For the experiments, the cells were subcultured into 12-well cluster plates at 1×10^5 cells/cm^2, and allowed to grow for 24 hrs. […] The cells were then incubated for either 24 hrs or 72 hrs depending on the experiment. All treatment conditions were established in triplicate.
Finally, TGF-beta activity was estimated by the direct effects on smooth muscle cell proliferation within the assay. For these experiments, the test agents were added, in triplicate, to cells both in the presence and absence of a neutralising antibody to TGF-beta (AB-100-NA; R&D Systems at 10 μg/ml, which is able to neutralise at least 25 ng/ml recombinant active TGF-beta1; R&D Systems). After 72 hrs incubation, the cells are washed and then released completely using 0.02% trypsin/EDTA (Gibco) at 37° C. for 10 mins, then counted manually using a haemocytometer. Importantly, the number of cells at 0 hrs must also be determined (using the same counting method, on a replicate set of three wells plated out specifically for the purpose). For each treatment condition, the TGF-beta-dependent inhibition of proliferation is expressed as the fold increase in the cumulative population doubling time in the absence of the neutralising antibody compared to the cumulative population doubling time in the presence of the neutralising antibody. […] Failure of either control led to the repeat of the experiment.

tgfb1 mRNA = tgfb1 mRNA level by quantitative PCR in human aortic vascular smooth muscle cells; assay type: cell-based; conditions: 24 hrs, normalised to TBP, vs vehicle
Experimental: (1995) Cardiovasc. Res. 29:848-55). […] The cells were then incubated for either 24 hrs or 72 hrs depending on the experiment. All treatment conditions were established in triplicate. The level of mRNA for tgfb1, tgfb2 and tgfb3 were estimated by quantitative PCR. The media was removed and RNA was carefully prepared using the Ambion RNAqueous4PCR kit (Ambion#1914) in accordance with the manufacturer's instructions. The purity of the RNA and the quantity was assessed spectrophotometrically. […] This analysis results in both a gel-like image as well as electrophoretic data. Indications of RNA degradation are: (a) decreasing ratio of ribosomal bands (b) additional peaks bellow the ribosomal bands (c) Decrease in overall RNA signal (d) shift towards shorter fragments. All the mRNA samples used in the experiments presented here passed this RNA quality control step. Next, the RNA was converted to cDNA using the ABI High-Capacity cDNA Archive Kit, in accordance with manufacturer's instructions. The qPCR assay was then set up as follow: all cDNA samples were diluted to 180 μl total volume using Molecular grade water. Samples were vortexed to ensure thorough mixing. cDNA was aliquoted into ABI 384 well plates using a multi-channel pipette, 4.5 μl of sample into each well. Samples were assayed in triplicate (that is, nine determinations in total were made for each condition, being three separate assays on each of three replicate culture wells). The assay mix and Universal Master Mix were prepared and aliquoted across the 384 well plates 5.5 μl in each well, using a single channel pipette. The final composition of each reaction (10 μl) being: Primer/Probe assay mix (×20)=0.5 μl; Universal Master Mix=5 μl; cDNA=4.5 μl. The plates were then heat sealed using Abgene clear seal strong plastic heat seals, and then cycled and scanned using the […] under the following conditions: 95° C. for 10 minutes to activate the AmpliTaq GOLD, then 40 cycles of: 95° C. for 15 Sec (Denaturation), 60° C. for 60 […]). […] Quantitative PCR was performed using several primer/probe sets. […] We used both commercially available primer/probe sets (ABI Taqman pre-validated assays), using both available sets in the ABI database for tgfb1 and tgfb2, as well as the single available set for tgfb3. In addition, we used our own manual design probe/primer set for each of tgfb1, tgfb2 and tgfb3. For normalisation, we used TATA-binding protein (TBP) as the primary normalisation standard, with GAPDH as an alternative for confirmation, using ABI Taqman pre-validated probe/primer sets. […] Neither TBP nor GAPDH mRNA levels are affected by TGF-beta and are therefore equally suitable, however TBP was selected as the primary normalisation standard because the absolute level of mRNA in most cell types is similar to that of the TGF-beta isoforms, resulting in lower errors on calculating the ratio, and improving the power of the experiment. In all quantitative PCR experiments, several additional controls were included: firstly, a control for each sample is run with no reverse transcription to ensure the mRNA sample is not contaminated with genomic DNA (although the manual design probe/primer sets were all selected to cross an exon/exon boundary, ensuring no detectable amplicon is produced from genomic DNA templates). Secondly, a control reaction is run using serial 2-fold dilutions of a standard cDNA preparation (prepared from commercially available IMAGE clones). This control ensures that the results for the unknown samples are obtained in the linear range of the amplification process, and are therefore truly quantitative. Failure of either control led to the repeat of the entire experiment. Typically, the half maximal signal was obtained after 20-30 amplification cycles. […]

| Structure (SMILES) | TGF-beta activity: ratio of CPD in the absence vs presence of neutralising anti-TGF-beta antibody (TGF-beta activity; 10 μM A) [fold] | TGF-beta activity: ratio of CPD in the absence vs presence of neutralising anti-TGF-beta antibody (TGF-beta activity; 33 μM A) [fold] | TGF-beta activity: ratio of CPD in the absence vs presence of neutralising anti-TGF-beta antibody (TGF-beta activity; 100 μM A) [fold] | TGF-beta activity: ratio of CPD in the absence vs presence of neutralising anti-TGF-beta antibody (TGF-beta activity; 100 μM A, listed as A) [fold] | effect of lower doses on CPD and hence TGF-beta activity (TGF-beta activity) | Level of tgfb1 mRNA, estimated by qPCR (tgfb1 mRNA; 10 μM A) [fold-change] | Level of tgfb1 mRNA, estimated by qPCR (tgfb1 mRNA; 33 μM A) [fold-change] | Level of tgfb1 mRNA, estimated by qPCR (tgfb1 mRNA; 100 μM A) [fold-change] | Level of tgfb1 mRNA, estimated by qPCR (tgfb1 mRNA; 3.3 μM T) [fold-change] | Level of tgfb1 mRNA, estimated by qPCR (tgfb1 mRNA; 10 μM T) [fold-change] | Level of tgfb1 mRNA, estimated by qPCR (tgfb1 mRNA; 33 μM T, listed as T) [fold-change] | Level of tgfb1 mRNA, estimated by qPCR (tgfb1 mRNA; 33 μM T, listed as TMX) |
| --- | --- | --- | --- | --- | --- | --- | --- | --- | --- | --- | --- | --- |
| CC(=O)Oc1ccccc1C(=O)O [Aspirin, acetylsalicylic acid] | 1.05 ± 0.09 | 1.13 ± 0.17 | 1.25 | 1.25 ± 0.06 | no statistically significant effect | 1.01 ± 0.04 | 0.93 ± 0.11 | 1.06 ± 0.08 |  |  |  |  |
| CC/C(=C(\c1ccccc1)c1ccc(OCCN(C)C)cc1)c1ccccc1 [Tamoxifen] |  |  |  |  | no statistically significant effect |  |  |  | 0.95 ± 0.16 | 1.27 ± 0.09 | 1.41 ± 0.08 | approximately 1.4 fold-change |
